What all share (type): binding
For experiment [1], the target named is T1, HeLa cell extract proteins (Homo sapiens, UniProt P22102).
T1 construct: endogenous in cells; host or cells: HeLa cell extract
T1 sequence (P22102 1-1010): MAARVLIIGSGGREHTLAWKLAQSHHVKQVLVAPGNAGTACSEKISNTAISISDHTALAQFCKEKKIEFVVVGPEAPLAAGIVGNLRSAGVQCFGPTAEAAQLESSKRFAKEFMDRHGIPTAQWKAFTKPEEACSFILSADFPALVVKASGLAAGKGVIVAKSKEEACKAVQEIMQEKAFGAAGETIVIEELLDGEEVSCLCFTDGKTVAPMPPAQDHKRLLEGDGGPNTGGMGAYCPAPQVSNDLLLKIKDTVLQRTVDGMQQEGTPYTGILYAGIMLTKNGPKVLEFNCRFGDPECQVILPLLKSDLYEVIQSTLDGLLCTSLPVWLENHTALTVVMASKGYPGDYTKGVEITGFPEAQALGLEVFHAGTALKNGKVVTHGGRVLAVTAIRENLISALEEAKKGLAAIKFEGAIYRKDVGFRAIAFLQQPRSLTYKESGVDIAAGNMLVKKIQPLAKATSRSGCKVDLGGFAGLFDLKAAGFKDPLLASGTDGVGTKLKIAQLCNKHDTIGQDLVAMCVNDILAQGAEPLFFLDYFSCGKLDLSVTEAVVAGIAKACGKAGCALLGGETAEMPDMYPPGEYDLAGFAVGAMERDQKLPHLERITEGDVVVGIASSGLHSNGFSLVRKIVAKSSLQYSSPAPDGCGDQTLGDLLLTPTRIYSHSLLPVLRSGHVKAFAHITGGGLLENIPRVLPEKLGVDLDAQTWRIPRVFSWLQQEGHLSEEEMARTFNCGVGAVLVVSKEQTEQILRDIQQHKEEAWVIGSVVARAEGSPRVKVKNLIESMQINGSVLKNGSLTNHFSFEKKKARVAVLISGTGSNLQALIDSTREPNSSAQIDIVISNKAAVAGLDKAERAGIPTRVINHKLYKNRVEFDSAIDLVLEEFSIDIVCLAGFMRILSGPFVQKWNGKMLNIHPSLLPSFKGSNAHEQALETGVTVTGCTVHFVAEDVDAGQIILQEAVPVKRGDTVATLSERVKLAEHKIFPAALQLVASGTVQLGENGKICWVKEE

Experiment [2] deals with T2, HeLa cell extract proteins (Homo sapiens, UniProt O60313).
T2 construct: endogenous in cells; host or cells: HeLa cell extract
T2 sequence (O60313 88-960): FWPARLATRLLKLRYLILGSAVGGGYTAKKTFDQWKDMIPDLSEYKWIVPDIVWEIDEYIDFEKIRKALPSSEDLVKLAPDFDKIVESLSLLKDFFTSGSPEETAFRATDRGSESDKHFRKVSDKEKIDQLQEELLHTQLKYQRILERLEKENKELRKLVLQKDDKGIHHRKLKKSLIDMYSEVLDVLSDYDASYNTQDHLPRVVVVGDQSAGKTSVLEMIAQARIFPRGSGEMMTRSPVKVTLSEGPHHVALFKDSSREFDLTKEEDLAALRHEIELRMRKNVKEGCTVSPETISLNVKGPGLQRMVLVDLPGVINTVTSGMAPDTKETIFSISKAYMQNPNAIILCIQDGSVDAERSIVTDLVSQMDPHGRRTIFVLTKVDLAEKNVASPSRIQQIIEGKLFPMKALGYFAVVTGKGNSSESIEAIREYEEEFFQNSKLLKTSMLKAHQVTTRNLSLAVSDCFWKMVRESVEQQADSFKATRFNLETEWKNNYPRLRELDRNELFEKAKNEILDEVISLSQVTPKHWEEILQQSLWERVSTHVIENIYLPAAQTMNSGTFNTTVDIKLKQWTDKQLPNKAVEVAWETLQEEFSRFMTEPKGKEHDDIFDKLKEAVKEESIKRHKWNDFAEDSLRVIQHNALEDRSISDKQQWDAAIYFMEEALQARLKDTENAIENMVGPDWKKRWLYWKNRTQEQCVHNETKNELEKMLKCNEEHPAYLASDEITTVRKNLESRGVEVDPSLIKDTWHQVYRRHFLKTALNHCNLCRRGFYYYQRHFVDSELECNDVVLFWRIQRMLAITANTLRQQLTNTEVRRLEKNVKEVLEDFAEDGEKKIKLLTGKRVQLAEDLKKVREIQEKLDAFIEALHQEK

The target of experiment [3] is T3, HeLa cell extract proteins (Homo sapiens, UniProt P31948).
T3 construct: endogenous in cells; host or cells: HeLa cell extract
T3 sequence (P31948 whole entry): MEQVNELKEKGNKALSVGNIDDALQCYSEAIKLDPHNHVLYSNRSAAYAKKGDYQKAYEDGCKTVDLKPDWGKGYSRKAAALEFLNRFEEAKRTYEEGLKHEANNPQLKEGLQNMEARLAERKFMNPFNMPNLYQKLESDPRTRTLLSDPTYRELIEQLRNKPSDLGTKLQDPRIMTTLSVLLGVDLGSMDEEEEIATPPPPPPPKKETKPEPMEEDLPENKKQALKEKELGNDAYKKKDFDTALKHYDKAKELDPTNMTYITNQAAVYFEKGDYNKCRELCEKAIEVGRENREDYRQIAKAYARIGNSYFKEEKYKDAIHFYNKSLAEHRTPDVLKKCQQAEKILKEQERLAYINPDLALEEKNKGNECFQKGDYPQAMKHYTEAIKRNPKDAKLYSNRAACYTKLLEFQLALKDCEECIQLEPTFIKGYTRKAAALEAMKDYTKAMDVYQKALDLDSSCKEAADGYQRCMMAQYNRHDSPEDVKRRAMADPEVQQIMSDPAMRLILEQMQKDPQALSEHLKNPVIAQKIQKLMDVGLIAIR

In experiment [4] the target is T4, HeLa cell extract proteins (Homo sapiens, UniProt P24666).
T4 construct: endogenous in cells; host or cells: HeLa cell extract
T4 sequence (P24666 1-158): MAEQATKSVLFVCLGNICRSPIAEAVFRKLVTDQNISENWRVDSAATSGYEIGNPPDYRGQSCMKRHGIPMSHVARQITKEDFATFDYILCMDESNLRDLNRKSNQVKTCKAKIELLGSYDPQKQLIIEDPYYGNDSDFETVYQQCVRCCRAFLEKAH

In experiment [5] the target is T5, HeLa cell extract proteins (Homo sapiens, UniProt P41091).
T5 construct: endogenous in cells; host or cells: HeLa cell extract
T5 sequence (P41091 whole entry): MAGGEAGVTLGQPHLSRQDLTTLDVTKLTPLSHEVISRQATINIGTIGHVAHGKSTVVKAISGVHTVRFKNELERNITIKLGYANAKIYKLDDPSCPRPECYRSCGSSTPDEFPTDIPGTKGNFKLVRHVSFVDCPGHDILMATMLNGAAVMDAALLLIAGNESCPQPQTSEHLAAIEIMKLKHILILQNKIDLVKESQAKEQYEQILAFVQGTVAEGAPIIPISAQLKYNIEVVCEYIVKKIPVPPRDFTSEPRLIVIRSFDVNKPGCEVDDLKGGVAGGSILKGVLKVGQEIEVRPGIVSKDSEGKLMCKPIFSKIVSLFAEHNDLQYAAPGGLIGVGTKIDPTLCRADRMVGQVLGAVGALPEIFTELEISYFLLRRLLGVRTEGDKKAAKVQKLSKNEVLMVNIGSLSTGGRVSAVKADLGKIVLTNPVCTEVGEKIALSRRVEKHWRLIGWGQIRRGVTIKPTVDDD

Experiment [6] addresses T6, HeLa cell extract proteins (Homo sapiens, UniProt O95373).
T6 construct: endogenous in cells; host or cells: HeLa cell extract

Where two headings read alike, the source gives them in different places.

The source of these data is publication PMC6199744, “Development of Chemical Proteomics for the Folateome and Analysis of the Kinetoplastid Folateome” (ACS Infectious Diseases, 2018).

T6 sequence (O95373 whole entry): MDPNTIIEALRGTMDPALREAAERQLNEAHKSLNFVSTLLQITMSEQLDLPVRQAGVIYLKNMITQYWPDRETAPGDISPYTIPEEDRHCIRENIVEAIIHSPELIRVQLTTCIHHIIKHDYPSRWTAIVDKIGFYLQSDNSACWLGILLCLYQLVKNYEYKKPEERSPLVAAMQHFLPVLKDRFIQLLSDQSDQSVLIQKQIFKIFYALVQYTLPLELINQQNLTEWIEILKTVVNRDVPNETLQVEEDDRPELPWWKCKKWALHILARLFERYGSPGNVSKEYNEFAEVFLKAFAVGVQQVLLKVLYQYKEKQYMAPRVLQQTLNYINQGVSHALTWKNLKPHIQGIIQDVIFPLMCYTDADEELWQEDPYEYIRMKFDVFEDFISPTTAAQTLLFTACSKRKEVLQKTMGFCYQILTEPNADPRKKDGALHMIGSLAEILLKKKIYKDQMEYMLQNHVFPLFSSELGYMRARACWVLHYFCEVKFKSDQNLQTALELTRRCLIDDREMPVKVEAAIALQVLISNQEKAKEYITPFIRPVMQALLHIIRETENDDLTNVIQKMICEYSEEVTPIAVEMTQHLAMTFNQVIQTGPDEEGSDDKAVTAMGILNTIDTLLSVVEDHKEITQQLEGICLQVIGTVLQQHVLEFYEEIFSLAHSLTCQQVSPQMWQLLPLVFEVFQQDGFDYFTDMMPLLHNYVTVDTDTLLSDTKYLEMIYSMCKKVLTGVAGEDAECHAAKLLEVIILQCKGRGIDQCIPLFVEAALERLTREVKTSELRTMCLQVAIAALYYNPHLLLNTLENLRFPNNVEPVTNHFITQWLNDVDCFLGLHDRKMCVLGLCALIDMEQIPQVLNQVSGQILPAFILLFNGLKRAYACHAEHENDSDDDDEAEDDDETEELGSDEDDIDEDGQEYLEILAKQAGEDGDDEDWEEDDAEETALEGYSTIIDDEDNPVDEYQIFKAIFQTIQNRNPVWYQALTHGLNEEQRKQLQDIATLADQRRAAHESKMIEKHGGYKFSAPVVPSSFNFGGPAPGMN

Consider `CCCCCCOc1cccc(Cc2cnc(N)nc2N)c1` [compound 2], for which the “fold changes relative to vehicle control” value in experiment [1] (captured protein GART, HeLa) stood at 1.03; in experiment [2] (HeLa, protein OPA1) it was 1.02; in experiment [3] (protein STIP1, HeLa), 1.49; in experiment [4] (HeLa, protein ACP1) it was 0.98; in experiment [5] (protein EIF2S3, HeLa), 1.13; in experiment [6] (protein IPO7, HeLa), 1.09.
As for `NCCOCCOCC(=O)Nc1nc2ncc(CNc3ccc(C(=O)NC(CCC(=O)O)C(=O)O)cc3)nc2c(=O)[nH]1` (stereo not drawn) [compound 6], the “fold changes relative to vehicle control” value was determined as 0.72 in experiment [1] (protein GART, HeLa); 0.87 in experiment [2] (HeLa, protein OPA1); 1.13 in experiment [3] (protein STIP1, HeLa); 1.04 in experiment [4] (protein ACP1, HeLa); 1.07 in experiment [5] (protein EIF2S3, HeLa); 0.98 in experiment [6] (HeLa, protein IPO7).
As for `CCCCCCOc1ccc(Cc2cnc(N)nc2N)cc1` [compound 1], the “fold changes relative to vehicle control” value was found to be 0.94 in experiment [1] (captured protein GART, HeLa); 0.82 in experiment [2] (HeLa, protein OPA1); 1.02 in experiment [3] (protein STIP1, HeLa); 0.77 in experiment [4] (HeLa, protein ACP1); 1.07 in experiment [5] (protein EIF2S3, HeLa); 0.93 in experiment [6] (protein IPO7, HeLa).
With `Nc1nc2c(c(=O)[nH]1)N(C=O)C(CNc1ccc(C(=O)N[C@@H](CCC(=O)O)C(=O)O)cc1)CN2` (stereo partly drawn) [LEU, leucovorin], the “fold changes relative to vehicle control” value in experiment [1] (protein GART, HeLa) amounted to 0.66; in experiment [2] (HeLa, protein OPA1) it was 0.88; in experiment [3] (protein STIP1, HeLa) it was 0.97; in experiment [4] (protein ACP1, HeLa) it was 0.72; in experiment [5] (protein EIF2S3, HeLa) it was 0.81; in experiment [6] (HeLa, protein IPO7), 0.94.
Regarding `NCCCNc1ccc(C(=O)NC(CCC(=O)O)C(=O)O)cc1` (stereo not drawn) [compound 7], the “fold changes relative to vehicle control” value in experiment [1] (protein GART, HeLa) came out at 1.14; in experiment [2] (HeLa, protein OPA1), 0.94; in experiment [3] (protein STIP1, HeLa), 0.92; in experiment [4] (protein ACP1, HeLa) it was 0.71; in experiment [5] (protein EIF2S3, HeLa), 1; in experiment [6] (HeLa, protein IPO7), 0.99.
`Nc1nc2[nH]cc(CCc3ccc(C(=O)N[C@@H](CCC(=O)O)C(=O)O)cc3)c2c(=O)[nH]1` [PTX, pemetrexed]: the “fold changes relative to vehicle control” value is given as 0.43 in experiment [1]; 0.84 in experiment [2]; 1.01 in experiment [3]; 0.84 in experiment [4]; 0.87 in experiment [5]; 0.93 in experiment [6].
On to `Nc1nc2cccc(-c3ccccc3)c2n1Cc1ccc(Cl)c(Cl)c1` [compound 3], for which the “fold changes relative to vehicle control” value in experiment [1] (captured protein GART, HeLa) was 1.1; in experiment [2] (HeLa, protein OPA1), 1.01; in experiment [3] (protein STIP1, HeLa), 0.87; in experiment [4] (HeLa, protein ACP1), 0.71; in experiment [5] (protein EIF2S3, HeLa) it was 1.06; in experiment [6] (protein IPO7, HeLa) it was 1.17.
